The results in this text go back to article PMC9671096 (Molecular pharmaceutics, 2021).

The structures appear in SMILES notation. Where a SMILES comes first, the peptide text is derived from it. The star is where a group is joined. Cbz = O=C(OCc1ccccc1)*

In one assay the test system is ERs. Format: binding, human. The conditions noted are these: IC50 of 17β-E2 divided by IC50 of test compound; MCF-7 cytosol.
A further assay deals with HiBiT-GPER (Homo sapiens, UniProt Q99527). It is filed as cell-based. As to conditions: for effect on UI-EP001/UI-EP002-mediated degradation of HiBiT-GPER: with 100 μM UI-EP001 or UI-EP002, 1 hour, MG132 10 μM, chloroquine 100 μM, E2 or aldosterone 100 nM-100 μM.
Sequence of HiBiT-GPER (Q99527 whole entry): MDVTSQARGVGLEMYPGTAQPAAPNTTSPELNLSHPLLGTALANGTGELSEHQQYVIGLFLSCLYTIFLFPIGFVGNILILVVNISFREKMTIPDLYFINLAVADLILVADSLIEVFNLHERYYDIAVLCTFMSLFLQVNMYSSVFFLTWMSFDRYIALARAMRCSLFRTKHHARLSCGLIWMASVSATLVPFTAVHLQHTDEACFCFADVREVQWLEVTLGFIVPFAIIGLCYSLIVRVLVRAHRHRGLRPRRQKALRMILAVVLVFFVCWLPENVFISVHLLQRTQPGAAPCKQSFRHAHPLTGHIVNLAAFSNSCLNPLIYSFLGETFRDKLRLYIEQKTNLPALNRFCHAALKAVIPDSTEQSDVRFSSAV
The target of the next assay is T1, HiBiT-ERα (Homo sapiens, UniProt P03372).
T1 sequence (P03372 1-595): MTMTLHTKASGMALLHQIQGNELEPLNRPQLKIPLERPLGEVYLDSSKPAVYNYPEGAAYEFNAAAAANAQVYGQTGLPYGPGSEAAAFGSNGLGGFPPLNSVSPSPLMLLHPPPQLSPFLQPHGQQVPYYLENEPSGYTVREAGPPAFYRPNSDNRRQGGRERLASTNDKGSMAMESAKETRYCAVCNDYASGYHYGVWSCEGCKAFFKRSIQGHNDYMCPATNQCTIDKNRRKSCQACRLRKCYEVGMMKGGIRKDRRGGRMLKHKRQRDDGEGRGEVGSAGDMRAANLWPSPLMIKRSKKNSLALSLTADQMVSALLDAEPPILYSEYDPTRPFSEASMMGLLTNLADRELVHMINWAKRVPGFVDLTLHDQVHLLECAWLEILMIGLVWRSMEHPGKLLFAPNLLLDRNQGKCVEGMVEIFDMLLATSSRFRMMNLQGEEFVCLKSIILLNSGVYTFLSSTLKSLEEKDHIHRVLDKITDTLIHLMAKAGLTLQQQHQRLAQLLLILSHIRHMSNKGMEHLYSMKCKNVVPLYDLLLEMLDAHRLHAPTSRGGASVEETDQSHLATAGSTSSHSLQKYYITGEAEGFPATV
Format: cell-based. The conditions noted are these: for effect on UI-EP001/UI-EP002-mediated degradation of HiBiT-ERα: with 100 μM UI-EP001 or UI-EP002, 1 hour, MG132 10 μM, chloroquine 100 μM, E2 or aldosterone 100 nM-100 μM. On the technique in general: HiBiT is a short tag that completes a luciferase, so light tracks the accessible tagged protein.

The test system of a further assay is SKBR3. Description: Cell cycle analysis. It is filed as cell-based, human. As to conditions: SKBR3, 10 μM, 24 hours.
The next assay has as its system MCF-7. Nature of the assay: Cell cycle analysis. Format: cell-based, human. The conditions noted are these: MCF-7, 10 μM, 24 hours.
For assay [1], the target named is T2, GPER (Homo sapiens, UniProt Q99527). Description: Intact cell competitive binding assay with E2-FITC tracer. The conditions noted are these: intact SKBR3 cells, concentrations as high as 10 μM.
T2 sequence (Q99527 whole entry): as the sequence (Q99527 whole entry) above
Assay [2] concerns the target T2, GPER. Nature of the assay: Immunostaining of endogenous GPER in MCF-7 cells. It is filed as cell-based. As to conditions: 1 hour.
A further assay has as its target T3, ERα (Homo sapiens, UniProt P03372).
T3 sequence (P03372 1-595): T1 sequence (P03372 1-595)
Description: Immunostaining of endogenous ERα in MCF-7 cells. As to conditions: 1 hour. Format: cell-based.

The target in a further assay is ERβ (Homo sapiens, UniProt Q92731). Nature of the assay: Immunostaining of endogenous ERβ in MCF-7 cells. It is filed as cell-based. As to conditions: 1 hour.
Sequence of ERβ (Q92731 whole entry): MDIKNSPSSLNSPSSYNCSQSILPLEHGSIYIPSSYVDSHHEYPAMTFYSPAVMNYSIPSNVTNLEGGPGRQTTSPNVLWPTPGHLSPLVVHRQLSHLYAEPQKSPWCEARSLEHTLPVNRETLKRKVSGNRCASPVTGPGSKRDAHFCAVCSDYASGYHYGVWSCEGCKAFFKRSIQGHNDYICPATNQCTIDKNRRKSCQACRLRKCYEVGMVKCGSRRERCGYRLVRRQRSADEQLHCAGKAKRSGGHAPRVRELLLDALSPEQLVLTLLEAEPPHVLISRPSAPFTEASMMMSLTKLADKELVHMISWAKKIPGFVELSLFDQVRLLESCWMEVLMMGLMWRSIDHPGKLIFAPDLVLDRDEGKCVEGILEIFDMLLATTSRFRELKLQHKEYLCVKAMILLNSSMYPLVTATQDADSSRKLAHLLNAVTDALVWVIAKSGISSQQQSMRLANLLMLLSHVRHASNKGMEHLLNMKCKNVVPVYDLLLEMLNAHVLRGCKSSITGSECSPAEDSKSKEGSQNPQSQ
A further assay has as its system MDA-MB-231. Description: Cell cycle analysis. Format: cell-based, human. As to conditions: MDA-MB-231, 10 μM, 24 hours.
A further assay deals with HCC-1806. Nature of the assay: Cell cycle analysis. Format: cell-based, human. The conditions noted are these: HCC-1806, 10 μM, 24 hours.

As to `C[C@]12CC[C@@H]3c4ccc(O)cc4CC[C@H]3[C@@H]1CC[C@@H]2O` [Estradiol, 17β-estradiol], the “ERs RBA%” value with ERs is reported as 100.0%.

For `CC(C)C[C@@H](C=O)NC(=O)[C@H](CC(C)C)NC(=O)[C@H](CC(C)C)NC(=O)OCc1ccccc1` [MG132] (Cbz-Leu-Leu-Leu-aldehyde), on HiBiT-GPER, the “effect on UI-EP001/UI-EP002-mediated degradation of HiBiT-GPER” value (shortened to “effect … of HiBiT-GPER”) is reported as “reversed”. In addition, the “effect on UI-EP001/UI-EP002-mediated degradation of HiBiT-ERα” value at HiBiT-ERα was “reversed”.

As for `Cc1ncsc1-c1ccc(CNC(=O)C2CC(O)CN2C(=O)C(NC(=O)COCCOCCOCCOCC(=O)O)C(C)(C)C)cc1` (centres unmarked) [Partial PROTAC], the “cell cycle distribution shift (G2/M arrest)” value in the assay with SKBR3, in the assay on MCF-7, in the assay on MDA-MB-231 and in the assay on HCC-1806 was “much less significant shift” each time. Further, the “competition for E2-FITC binding to GPER” value on GPER [1] is reported as “unable to compete”. Besides, on GPER [2], the “reduction of intracellular GPER” value was “did not impact”. Further, the “reduction of nuclear ERα” value on ERα is “did not impact”. Also, the “decrease of HiBiT-GPER” value on HiBiT-GPER (100 μM, 1 hour) is “did not show any significant decrease”. Moreover, the “receptor present following treatment” value at HiBiT-GPER (100 μM, 8 hrs, text does not say which receptor (HiBiT-GPER or HiBiT-ER)) was determined as 83%. In addition, the “reduction of nuclear ERβ” value on ERβ is on record as “did not impact”. On HiBiT-ERα (100 μM, 1 hour), the “decrease of HiBiT-ERα” value is listed as “did not show any significant decrease”.

For the compound `C[C@]12CCC(=O)C=C1CC[C@@H]1[C@@H]2[C@@H](O)C[C@]2(C=O)[C@@H](C(=O)CO)CC[C@@H]12` [aldosterone], on HiBiT-GPER, the “effect … of HiBiT-GPER” value is recorded as “not aldosterone was capable of blocking”. Further, the “effect on UI-EP001/UI-EP002-mediated degradation of HiBiT-ERα” value at HiBiT-ERα is listed as “not aldosterone was capable of blocking”.

Take `CCN(CC)CCCC(C)Nc1ccnc2cc(Cl)ccc12` (centres unmarked) [chloroquine, chloroquine diphosphate]: the “effect … of HiBiT-GPER” value on HiBiT-GPER is recorded as “had no such effect”.
